Data taken from patent US20240043386A1, “Modulators of the Cystic Fibrosis Transmembrane Conductance Regulator Protein and Methods of Use” (AbbVie Global Enterprises Ltd., priority 2021, published 2024).
Like-named read-outs stand apart in the source and are kept apart here.

Columns and labels:
[1] = biological target: T1, F508delCFTR (Homo sapiens, UniProt P13569, DEL508-508); assay: Cell Surface Expression-Horse Radish Peroxidase (CSE-HRP) assay in CFBE41o-F508delCFTR-HRP cells; format: cell-based; conditions: for EC50: CFBE41o-F508delCFTR-HRP cells, 18-24 hours at 33° C., luminescence; for Maximum % activity (with co-corrector) / Maximum % activity (without co-corrector): normalized to on-plate positive control corrector (2 μM)
T1 construct: expressed in transfected cells; host or cells: CFBE41o- human lung-derived epithelial cell line, doxycycline-inducible expression
Protocol: A cellular assay for measuring the F508delCFTR cell surface expression after correction with test compounds either without or with a co-corrector (2 μM of 3-[(2R,4R)-4-({[1-(2,2-difluoro-1,3-benzodioxol-5-yl)cyclopropyl]carbonyl}amino)-7-methoxy-3,4-dihydro-2H-chromen-2-yl]benzoic acid), was developed in human lung derived epithelial cell line (CFBE4lo-) (Veit G et al, (2012) Mol Biol Cell. 23(21): 4188-4202). The development was achieved by expressing the F508delCFTR mutation along with a horseradish peroxidase (HRP) in the fourth exofacial loop, and then measuring the HRP activity using luminescence readout from these cells, CFBE4lo-F508delCFTR-HRP, that were incubated overnight with the test corrector compounds, either without or with the co-corrector. For this primary assay, the CFBE4lo-F508delCFTR-HRP cells were plated in 384-well plates (Greiner Bio-one; Cat 781080) at 4,000 cells/well along with 0.5 μg/mL doxycycline to induce the F508delCFTR-RP expression and further incubated at 37° C., 5% CO2 for 68-72 hours. The test compounds were then added either without or with a co-corrector at the required concentrations and further incubated for 18-24 hours at 33° C. The highest concentration tested was 20 μM or 30 μM (GI-1 to GIII-36) with an 8-point concentration response curve using a 3-fold dilution in both the test compound without or with the co-corrector. Three replicate plates were run to determine one EC50. All plates contained negative controls (dimethyl sulfoxide, DMSO) and positive control (2 μM or 3 μM (GI-1 to GIII-36) of 3-[(2R,4R)-4-({[1-(2,2-difluoro-1,3-benzodioxol-5-yl)cyclopropyl]carbonyl}amino)-7-methoxy-3,4-dihydro-2H-chromen-2-yl]benzoic acid) as well as on-plate concentration response of the positive control. Post incubation, the plates were washed 5× times with Dulbecco's phosphate buffered saline (DPBS), followed by the addition of the HRP substrate, luminol (50 μL), and measuring the HRP activity using luminescence readout on EnVision® Multilabel Plate Reader (Perkin Elmer; product number 2104-0010). The raw counts from the experiment were analyzed using Accelrys® Assay Explorer v3.3.
Z′ greater than 0.5 was used as passing quality control criteria for the plates. The Z′ is defined as:
1−[3*SDPositive Control+3*SDNegative Control/Absolute (MeanPositive Control−MeanNegative Control)]
The % activity measured at each of the 8 test concentrations of the test compound added either without or with a co-corrector (2 μM or 3 μM (GI-1 to GIII-36) of 3-[(2R,4R)-4-({[1-(2,2-difluoro-1,3-benzodioxol-5-yl)cyclopropyl]carbonyl}amino)-7-methoxy-3,4-dihydro-2H-chromen-2-yl]benzoic acid) was normalized to the on-plate positive control using the following formulae:
% activity (Test compound without co-corrector)=[(test compound without co-corrector response−DMSO response)/(positive control response−DMSO response)]*100
% activity (Test compound with co-corrector)=[(test compound with co-corrector response−DMSO response)/(positive control response−DMSO response)]*100
The maximum % activity achieved for the test compound either without or with a co-corrector at any tested concentration is presented in Table 3 along with the respective EC50's calculated using the following general sigmoidal curve with variable Hill slope equation (described as Model 42 in the Accelrys® Assay Explorer v3.3 software):
General sigmoidal curve with concentration, response, top, bottom, EC50 and Hill slope. This model describes a sigmoidal curve with an adjustable baseline, a. The equation can be used to fit curves where response is either increasing or decreasing with respect to the independent variable, “x”.

[2] = biological target: T2, F508del/F508del CFTR (Homo sapiens, UniProt P13569, DEL508-508); assay: Trans-Epithelial Current Clamp (TECC) assay using primary human bronchial epithelial cells; format: cell-based; conditions: for Emax (% Dual): maximum percent activity relative to positive control (co-corrector 0.15 μM + potentiator 0.45 μM = 100%), primary hBE cells F508del/F508del; for EC50: primary hBE cells homozygous F508del/F508del, test C2 corrector with co-corrector and potentiator, 18-24 hours at 37° C., equivalent CFTR current (IEQ)/AUC
T2 construct: cells isolated from CF patients with the homozygous mutation; endogenous in cells; host or cells: primary human bronchial epithelial (hBE) cells from CF patients homozygous for F508del
Description: A cell-based assay was developed using the primary human bronchial epithelial cells (hBE cells) with F508del/F508del CFTR and other mutations.
Primary human bronchial epithelial (hBE) cells from CFTR patients with homozygous F508del/F508del mutation were expanded from 1×10^6 to 250×10^6 cells (Neuberger, T et al., 2011, Methods Mol Biol 741:39-54). For this purpose, cells isolated from CF patients with the homozygous mutation, procured from the CF center tissue procurement and cell culture core at the Marsico Lung Institute at UNC (Randell), the Cystic Fibrosis translational research center at McGill University (University), and Rosalind Franklin University Medical School (RFUMS) were seeded onto 24 well Corning (Cat #3378) filter plates that were coated with 3T3 conditioned media and grown at an air-liquid interface for 35 days using an Ultroser® G supplemented differentiation media. All the primary human bronchial epithelial cells were collected in accordance with institutional review board approval protocols. Apical surface mucus was removed 72 hours before the experiment by incubating the apical surface of the cells for 30 minutes with 3 mM dithiothreitol (DTT) prepared in Dulbecco's phosphate buffered saline (DPBS) with Ca^2+ and Mg^2+. This was followed with aspiration of the mucus from the apical surface along with DPBS. The apical surface was re-washed with phosphate buffered saline (PBS) incubated for 30 minutes followed with aspiration. These hBE cells were then incubated with the desired concentrations of the test C2 corrector compounds along with co-corrector, 4-[(2R,4R)-4-({[1-(2,2-difluoro-1,3-benzodioxol-5-yl)cyclopropyl]carbonyl}amino)-7-(difluoromethoxy)-3,4-dihydro-2H-chromen-2-yl]benzoic acid and potentiator, (5-{3-amino-5-[4-(trifluoromethoxy)benzene-1-sulfonyl]pyridin-2-yl}-1,3,4-oxadiazol-2-yl)methanol, for 18-24 hours at 37° C., 5% CO2. The desired concentrations of the correctors and potentiator compounds were prepared from the 10 mM stocks in differentiation media and were always applied on the basolateral side of the epithelial cells. We also used an assay format where a fixed concentration of potentiator was added chronically along with the corrector compounds. This chronic treatment with the potentiator helped eliminate any interaction that might happen with CFTR modulators (correctors and potentiators) and thereby determined the true efficacy of the modulator combinations reflective of clinical relevance.
The assay uses a Transepithelial Current Clamp (TECC) (Vu, C B et al., 2017; J Med Chem 60:458-473) instrument that can measure the functionality of the mutated channel by measuring the equivalent CFTR current (IEQ) generated by the polarized primary epithelial cells. We used a TECC-24 with a 24-channel electrode manifold allowing for the simultaneous measurement of the transepithelial voltage, VT, and transepithelial resistance, RT, under current clamp conditions, from 24 filters using a 24 well Costar filter plate. The design of the filters in the 24 well filter plates was exactly the same as the design of an individual Transwell filter used in the classical Ussing Chamber with a surface area of 0.33 cm^2. Each measured VT values were corrected for the electrode offset potential measured using buffer alone in a separate plate, and each measured RT values were then corrected for the combined solution series and empty filter resistances. The corrected VT and RT values were then used to calculate the equivalent current, IEQ using Ohm's law (IEQ=VT/RT). The area under the curve (AUC) for the time period between the forskolin peak IEQ response and at the time of bumetanide addition was also calculated using a one-third trapezoid method, in addition to calculating the IEQ. The assay was run in a 24-well format and all 24-wells were measured at the same time point giving a higher throughput for this assay. […]

[3] = with co-corrector (2 μM), read-out: EC50 (with co-corrector)
[4] = without co-corrector, read-out: EC50 (without co-corrector)

T2 sequence (P13569 with tags, fused parts or gaps DEL508-508): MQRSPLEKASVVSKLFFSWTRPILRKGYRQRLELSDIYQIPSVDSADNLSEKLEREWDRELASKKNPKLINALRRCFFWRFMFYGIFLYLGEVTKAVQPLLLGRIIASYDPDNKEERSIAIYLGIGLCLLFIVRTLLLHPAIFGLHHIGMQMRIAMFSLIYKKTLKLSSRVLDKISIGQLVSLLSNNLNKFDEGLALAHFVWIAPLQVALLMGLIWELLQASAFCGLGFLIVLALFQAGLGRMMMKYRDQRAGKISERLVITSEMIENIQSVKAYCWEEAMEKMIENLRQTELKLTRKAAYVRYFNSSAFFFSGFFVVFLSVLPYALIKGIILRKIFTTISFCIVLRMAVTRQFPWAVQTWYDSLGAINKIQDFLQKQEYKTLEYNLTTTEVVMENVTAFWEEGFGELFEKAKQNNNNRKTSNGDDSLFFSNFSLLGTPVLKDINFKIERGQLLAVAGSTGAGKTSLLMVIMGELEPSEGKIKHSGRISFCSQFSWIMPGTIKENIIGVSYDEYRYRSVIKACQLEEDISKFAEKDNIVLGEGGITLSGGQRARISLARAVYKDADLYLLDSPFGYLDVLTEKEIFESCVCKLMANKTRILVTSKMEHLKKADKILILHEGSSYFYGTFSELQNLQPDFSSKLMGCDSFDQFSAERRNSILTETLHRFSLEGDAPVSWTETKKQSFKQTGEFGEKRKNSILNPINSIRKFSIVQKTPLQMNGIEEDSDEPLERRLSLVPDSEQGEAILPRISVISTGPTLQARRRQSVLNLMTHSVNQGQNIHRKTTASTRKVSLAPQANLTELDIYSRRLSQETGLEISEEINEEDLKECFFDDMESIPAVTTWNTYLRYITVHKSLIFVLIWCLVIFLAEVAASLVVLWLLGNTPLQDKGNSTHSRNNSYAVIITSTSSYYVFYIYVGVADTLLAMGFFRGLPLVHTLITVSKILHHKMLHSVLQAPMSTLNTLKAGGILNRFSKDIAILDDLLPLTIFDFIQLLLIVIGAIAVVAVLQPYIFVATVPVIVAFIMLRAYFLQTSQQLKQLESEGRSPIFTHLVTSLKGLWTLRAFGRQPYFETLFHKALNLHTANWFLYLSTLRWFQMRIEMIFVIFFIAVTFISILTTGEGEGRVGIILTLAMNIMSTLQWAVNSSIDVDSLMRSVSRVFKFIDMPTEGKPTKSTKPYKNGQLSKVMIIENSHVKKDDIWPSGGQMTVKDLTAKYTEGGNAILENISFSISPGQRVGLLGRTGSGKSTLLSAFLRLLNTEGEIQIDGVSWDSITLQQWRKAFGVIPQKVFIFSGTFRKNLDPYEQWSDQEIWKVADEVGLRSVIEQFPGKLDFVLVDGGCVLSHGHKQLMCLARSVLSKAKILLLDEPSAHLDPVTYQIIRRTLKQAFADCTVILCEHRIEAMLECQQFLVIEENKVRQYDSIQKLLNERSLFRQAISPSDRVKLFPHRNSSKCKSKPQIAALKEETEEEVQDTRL
T1 sequence (P13569 with tags, fused parts or gaps DEL508-508): as above

| EC50 [1, 3] | EC50 [1, 4] | Emax (% Dual) [2] | EC50 [2] | Maximum % activity (with co-corrector) ([1]; with co-corrector (2 μM)) | Maximum % activity (without co-corrector) ([1]; without co-corrector) | Structure (SMILES) |
| --- | --- | --- | --- | --- | --- | --- |
| 990 nM | 1980 nM | 256 % Dual | 7.8 nM |  |  | COc1ccc(C)cc1[C@]1(C(=O)NS(=O)(=O)c2cccc3nc(C)ccc23)C[C@@H]1c1cccc(C)n1 [Example 96, (1S,2S)-1-(2-methoxy-5-methylphenyl)-2-(6-methylpyridin-2-yl)-N-(2-methylquinoline-5-sulfonyl)cyclopropane-1-carboxamide] |
| 884 nM | 1000 nM | 199 % Dual | 147 nM | 842% | 243% | COc1ccc(C)cc1[C@@]1(C(=O)NS(=O)(=O)c2cccc3nc(C)ccc23)C[C@H]1c1cnc(C)c(F)c1 (single isomer, unassigned) [Example 101] |
| 954 nM | 2340 nM | 359 % Dual | 5.2 nM |  | 951% | COc1ccc(C)cc1[C@]1(C(=O)NS(=O)(=O)c2cccc3nc(C)ccc23)C[C@@H]1c1cccnc1OC (single isomer, unassigned) [Example 50] |
| 421 nM | 489 nM | 417 % Dual | 1.5 nM |  | 944% | COc1ccc(C)cc1[C@@]1(C(=O)NS(=O)(=O)c2cccc3nc(C)ccc23)C[C@H]1c1ccc(C)cc1 (racemic) [Example 4, rac-(1r,2s)-1-(2-methoxy-5-methylphenyl)-2-(4-methylphenyl)-N-(2-methylquinoline-5-sulfonyl)cyclopropane-1-carboxamide] |
| 900 nM | 1720 nM | 348 % Dual | 40.4 nM |  | 812% | COCc1cccc([C@H]2C[C@@]2(C(=O)NS(=O)(=O)c2cccc3nc(C)ccc23)c2cc(C)ccc2OC)n1 [Example 90, (1S,2S)-1-(2-methoxy-5-methylphenyl)-2-[6-(methoxymethyl)pyridin-2-yl]-N-(2-methylquinoline-5-sulfonyl)cyclopropane-1-carboxamide] |

More lines, now with the values behind:

| Structure (SMILES) | EC50 [1, 3] | EC50 [1, 4] | Emax (% Dual) [2] | EC50 [2] | Maximum % activity (with co-corrector) ([1]; with co-corrector (2 μM)) | Maximum % activity (without co-corrector) ([1]; without co-corrector) |
| --- | --- | --- | --- | --- | --- | --- |
| COc1ccc(C)cc1[C@]1(C(=O)NS(=O)(=O)c2cccc3nc(C)ccc23)C[C@@H]1c1cccc(C(C)C)n1 [Example 57, (1S,2S)-1-(2-methoxy-5-methylphenyl)-N-(2-methylquinoline-5-sulfonyl)-2-[6-(propan-2-yl)pyridin-2-yl]cyclopropane-1-carboxamide] | 510 nM | 1130 nM | 253 % Dual | 19.2 nM |  |  |
| COc1ncc([C@@H]2C[C@]2(C(=O)NS(=O)(=O)c2cccc3nc(C)ccc23)c2cc(C)ccc2OC)cn1 (racemic) [Example 36, rac-(1r,2s)-1-(2-methoxy-5-methylphenyl)-2-(2-methoxypyrimidin-5-yl)-N-(2-methylquinoline-5-sulfonyl)cyclopropane-1-carboxamide] | 2480 nM | 4320 nM | 173 % Dual | > 300 nM | 666% | 248% |
| COc1ccc(C)cc1[C@@]1(C(=O)NS(=O)(=O)c2cccc3nc(C)ccc23)C[C@H]1c1cnc(C(C)C)cn1 (racemic) [Example 61, rac-(1r,2r)-1-(2-methoxy-5-methylphenyl)-N-(2-methylquinoline-5-sulfonyl)-2-[5-(propan-2-yl)pyrazin-2-yl]cyclopropane-1-carboxamide] | 1110 nM | 2440 nM | 281 % Dual | 74.5 nM |  | 700% |
| COc1cnc([C@@H]2C[C@]2(C(=O)NS(=O)(=O)c2cccc3nc(C)ccc23)c2cc(C)ccc2OC)cn1 (racemic) [Example 39, rac-(1r,2r)-1-(2-methoxy-5-methylphenyl)-2-(5-methoxypyrazin-2-yl)-N-(2-methylquinoline-5-sulfonyl)cyclopropane-1-carboxamide] | 639 nM | 1230 nM | 317 % Dual | 18 nM |  | 563% |
| COc1ccc(C)cc1[C@@]1(C(=O)NS(=O)(=O)c2cccc3nc(C)ccc23)C[C@H]1c1cnc(C)cn1 (single isomer, unassigned) [Example 91] | 4340 nM | 5240 nM | 138 % Dual | > 800 nM | 579% | 226% |
